{"source": "paper PMC2397535", "about": "(Breast Cancer Research : BCR, 2008)", "key": {"[1]": {"system": "BT-474", "assay": "antiproliferative effect (GI50), breast cancer cell line", "assay_type": "cell-based", "conditions": "Homo sapiens"}, "[2]": {"system": "BT20", "assay": "antiproliferative effect (GI50), breast cancer cell line", "assay_type": "cell-based", "conditions": "Homo sapiens, BT-20"}, "[3]": {"system": "MDA-MB-231", "assay": "antiproliferative effect (GI50), breast cancer cell line", "assay_type": "cell-based", "conditions": "Homo sapiens"}, "[4]": {"system": "MCF-7", "assay": "antiproliferative effect (GI50), breast cancer cell line", "assay_type": "cell-based", "conditions": "Homo sapiens, MCF7"}, "[5]": {"system": "panel of human breast cancer cell lines", "assay": "antiproliferative effect, panel of seven breast cancer cell lines (summary values)", "assay_type": "cell-based"}, "[6]": {"system": "MAXF 1162", "assay": "clonogenic (soft agar colony formation) assay, primary breast tumor", "assay_type": "cell-based, human"}, "[7]": {"system": "MAXF 1322", "assay": "clonogenic (soft agar colony formation) assay, primary breast tumor", "assay_type": "cell-based, human"}, "[8]": {"system": "MAXF 1384", "assay": "clonogenic (soft agar colony formation) assay, primary breast tumor", "assay_type": "cell-based, human"}, "[9]": {"system": "MAXF 401", "assay": "clonogenic (soft agar colony formation) assay, primary breast tumor", "assay_type": "cell-based, human"}, "[10]": {"system": "MAXF 574", "assay": "clonogenic (soft agar colony formation) assay, primary breast tumor", "assay_type": "cell-based, human"}, "[11]": {"system": "MAXF 583", "assay": "clonogenic (soft agar colony formation) assay, primary breast tumor", "assay_type": "cell-based, human"}, "[12]": {"system": "ERBB2, AKT, phospho-AKT in BT-474 cells", "assay": "client protein levels in BT-474 cells (Western blot)", "assay_type": "cell-based, human", "description": "(§1) To assess total levels of AKT, phosphorylated AKT, β-tubulin, and ERBB2 in the cell extracts, 20 to 30 μg of total protein was resolved by the appropriate-percentage SDS-PAGE. The following antibodies were used for immunoblotting: anti-AKT (cat. no. 9272, rabbit polyclonal; Cell Signaling Technology, Inc.), anti-phospho-AKT (Ser473) (cat. no. 9271, rabbit polyclonal; Cell Signaling Technology, Inc.), anti-β-tubulin (cat. no. T 4026, mouse monoclonal, clone Tub2.1; Sigma-Aldrich, St. Louis, MO, USA), and anti-ERBB2 (cat. no. 28-0004, rabbit polyclonal; Zymed Laboratories Inc., now part of Invitrogen Corporation, Carlsbad, CA, USA). Bound antibodies on PVDF immunoblots were detected by Amersham ECL (Amersham, now part of GE Healthcare, Little Chalfont, Buckinghamshire, UK) or infrared fluorescence detection (LI-COR Biosciences, Lincoln, NE, USA)."}, "[13]": {"system": "phospho-AKT (Ser473)", "assay": "AKT phosphorylation in BT-474 xenografts (Western blot)", "assay_type": "in vivo, mice", "description": "as §1\n(§2) Invasive procedures were performed under Forene anesthesia. […] The animals were fed food and water ad libitum."}, "[14]": {"system": "HSP70", "assay": "HSP70 induction in BT-474 xenografts (immunohistochemistry)", "assay_type": "in vivo, mice", "conditions": "single 50 mg/kg dose", "description": "Formalin-fixed paraffin-embedded tissue sections were stained using the Ventana Discovery System (Ventana Medical Systems, Inc., Tucson, AZ, USA). Deparaffinization of tissue sections and heat-induced epitope retrieval using Standard Cell Conditioning Solution 1 (Ventana Medical Systems, Inc.) were performed directly on the System. A rabbit anti-human ERBB2 (HER2) monoclonal antibody (Lab Vision Corporation, Fremont, CA, USA) and a mouse anti-human HSP70 (Assay Designs, Inc.) were prepared in Dako diluent (Dako North America, Inc., Carpinteria, CA, USA) and used at concentrations of 2 ug/mL for 32 minutes and 10 ug/mL for 60 minutes, respectively. For HSP70 staining, slides were incubated with a biotin-labeled anti-mouse IgG1 (Research Diagnostics, Inc., now known as Fitzgerald Industries International, Concord, MA, USA) at a concentration of 1.25 ug/mL diluted in M.O.M. (Mouse-on-Mouse) (Vector Laboratories, Peterborough, UK). Detection using a 3,3'-diaminobenzadine reaction was performed on the section by using the Ventana OmniMAP DAB for the ERBB2 antibody and the Ventana DAB Map reagent for the HSP70 antibody (Ventana Medical Systems, Inc.). Each tissue section was subsequently counterstained with hematoxylin. To ensure antibody specificity, consecutive tissue sections were incubated with normal isotype-matched immunoglobulins (rabbit IgG; Jackson ImmunoResearch Laboratories, Inc., West Grove, PA, USA, and mouse IgG1; Lab Vision Corporation) used at concentrations equivalent to Her2 and HSP70 antibodies. Stained tissue sections were quantified using the Aperio Digital Pathology System (Aperio Technologies, Inc., Vista, CA, USA).\nas §2"}, "[15]": {"system": "BT-474 breast cancer xenograft", "assay": "antitumor effect in BT-474 breast cancer xenograft model", "assay_type": "in vivo, mice", "conditions": "for T/C / Tumor volume change: day 20", "description": "as §2\n(§3) Tumor growth and body weights were monitored at regular intervals. The xenograft tumor sizes were measured manually with calipers, and the tumor volume was estimated using the formula (w × l × h × π/6), where width (w), height (h), and length (l) are the three largest diameters.\n(§4) When applicable, results are presented as mean ± standard error of the mean. Tumor and body weight data were analyzed by analysis of variance (ANOVA) with the post hoc Dunnett test for comparison of treatment versus control groups. The post hoc Tukey test was used for intragroup comparison. Statistical analysis was performed using GraphPad Prism 5 (GraphPad Software, Inc., San Diego, CA, USA). As a measure of efficacy, the %T/C value is calculated at the end of the experiment according to (Δtumor volumetreated/Δtumor volumecontrol) × 100, where Δtumor volumes represent the mean tumor volume on the evaluation day minus the mean tumor volume at the start of the experiment."}, "[16]": {"assay": "tolerability (body weight, survival) in BT-474 tumor-bearing nude mice", "assay_type": "in vivo", "description": "as §2, §3, §4"}, "[17]": {"system": "HSP90α", "conditions": "read-out: IC50 (median inhibition concentration); cited from earlier work"}}, "note": "Like-named read-outs stand apart in the source and are kept apart here. Marks after values point to notes of the source that are not given here."}
{"smiles": "CCNC(=O)c1noc(-c2cc(C(C)C)c(O)cc2O)c1-c1ccc(CN2CCOCC2)cc1", "note": "[NVP-AUY922]", "values": [{"measurement": "GI50", "setting": "[1]", "result": "3.1 ± 1.4", "unit": "nM"}, {"measurement": "GI50", "setting": "[2]", "result": "4 ± 1.4", "unit": "nM"}, {"measurement": "GI50", "setting": "[3]", "result": "7 ± 1.7", "unit": "nM"}, {"measurement": "GI50", "setting": "[4]", "result": "8.8 ± 1.8", "unit": "nM"}, {"measurement": "GI50", "setting": "[5]; seven cell lines, read-out: GI50 values, range over human breast cancer cell lines", "result": "3 to 126", "unit": "nM"}, {"measurement": "GI50", "setting": "[5]; six of the seven breast cancer cell lines, read-out: average GI50 value", "result": 5.4, "unit": "nM"}, {"measurement": "IC70 (colony formation)", "setting": "[6]", "result": 505, "unit": "nM"}, {"measurement": "IC50", "setting": "[6]; Homo sapiens", "result": 304, "unit": "nM"}, {"measurement": "IC70 (colony formation)", "setting": "[7]", "result": 48, "unit": "nM"}, {"measurement": "IC50", "setting": "[7]; Homo sapiens", "result": 29, "unit": "nM"}, {"measurement": "IC70 (colony formation)", "setting": "[8]", "result": 477, "unit": "nM"}, {"measurement": "IC50", "setting": "[8]; Homo sapiens", "result": 209, "unit": "nM"}, {"measurement": "IC70 (colony formation)", "setting": "[9]", "result": 295, "unit": "nM"}, {"measurement": "IC50", "setting": "[9]; Homo sapiens, MAXF401", "result": 78, "unit": "nM"}, {"measurement": "IC70 (colony formation)", "setting": "[10]", "result": ">10,000 nM"}, {"measurement": "IC50", "setting": "[10]; Homo sapiens", "result": "> 10000", "unit": "nM"}, {"measurement": "IC70 (colony formation)", "setting": "[11]", "result": 569, "unit": "nM"}, {"measurement": "IC50", "setting": "[11]; Homo sapiens", "result": 333, "unit": "nM"}, {"measurement": "concentration required for significant reduction of protein AKT levels", "setting": "[12]", "result": "[…]"}, {"measurement": "phospho-AKT levels", "setting": "[12]; 50 nM", "result": "decrease in the levels of phospho-AKT"}, {"measurement": "total ERBB2 levels", "setting": "[12]; 50 nM", "result": "decrease in total ERBB2 levels"}, {"measurement": "phospho-AKT levels", "setting": "[13]; single dose 30 mg/kg i.v.", "result": "reductions in phospho-AKT levels"}, {"measurement": "phospho-AKT levels", "setting": "[13]; single i.v. dose 25 mg/kg, tumors dissected 6 hours later", "result": "reduction in phospho-AKT levels"}, {"measurement": "HSP70 staining intensity, recovery", "setting": "[14]", "result": "gradually returned to baseline over one week"}, {"measurement": "time point of peak HSP70 staining intensity", "setting": "[14]", "result": 24, "unit": "h"}, {"measurement": "HSP70 staining intensity", "setting": "[14]; 6 hours after administration", "result": "strongly increased HSP70 staining"}, {"measurement": "T/C", "setting": "[15]; 8.3 mg/kg once per week", "result": 95, "unit": "percentage"}, {"measurement": "Tumor volume change", "setting": "[15]; 8.3 mg/kg once per week", "result": "252 ± 73", "unit": "cubic millimeters"}, {"measurement": "T/C", "setting": "[15]; 17 mg/kg once per week", "result": 72, "unit": "percentage"}, {"measurement": "Tumor volume change", "setting": "[15]; 17 mg/kg once per week", "result": "191 ± 61", "unit": "cubic millimeters"}, {"measurement": "T/C", "setting": "[15]; 25 mg/kg once per week", "result": 12, "unit": "percentage"}, {"measurement": "Tumor volume change", "setting": "[15]; 25 mg/kg once per week", "result": "32 ± 15^a cubic millimeters"}, {"measurement": "T/C", "setting": "[15]; 41 mg/kg once per week", "result": 3, "unit": "percentage"}, {"measurement": "Tumor volume change", "setting": "[15]; 41 mg/kg once per week", "result": "9 ± 13^a cubic millimeters"}, {"measurement": "T/C", "setting": "[15]; 58 mg/kg once per week", "result": 8, "unit": "percentage"}, {"measurement": "Tumor volume change", "setting": "[15]; 58 mg/kg once per week", "result": "22 ± 26^a cubic millimeters"}, {"measurement": "tumor response", "setting": "[15]; once per week i.v., 8.3 to 17 mg/kg", "result": "did not result in a significant effect on tumor growth"}, {"measurement": "tumor response", "setting": "[15]; once per week i.v., 25 to 58 mg/kg", "result": "highly efficacious"}, {"measurement": "tumor growth", "setting": "[15]; single i.v. dose 17 mg/kg", "result": "indication of retarded tumor growth"}, {"measurement": "time without significant tumor growth after administration", "setting": "[15]; single i.v. dose 25 mg/kg", "result": "[…]"}, {"measurement": "tumor size at end corresponds to control tumor size this much earlier", "setting": "[15]; single i.v. dose 25 mg/kg", "result": "approximately 10 days"}, {"measurement": "tumor size versus control group at the end of the experiment", "setting": "[15]; single i.v. dose 25 mg/kg, 21 days, P < 0.05", "result": "statistically significantly smaller"}, {"measurement": "tumor response", "setting": "[15]; three times per week i.v., 10 mg/kg", "result": "did not result in a significant effect on tumor growth"}, {"measurement": "tumor response", "setting": "[15]; three times per week i.v., 30 and 50 mg/kg", "result": "tumor regression"}, {"measurement": "body weights compared with vehicle", "setting": "[16]; single i.v. administration, 17 or 25 mg/kg", "result": "did not affect body weights"}, {"measurement": "body weight", "setting": "[16]; three times per week i.v., all dose levels (10, 30, 50 mg/kg)", "result": "significant body weight loss"}, {"measurement": "IC50", "setting": "[17]", "result": "[…]"}]}
